Results: patent US8951747B2, “Method for modulating activity of T lymphocytes” (Ludwig Institute for Cancer Research, priority 2007, dated 2015)

Assays:
Format in all cases: cell-based, human
CD8TL clone A10 [1] = experiment: IFN-γ production following antigenic stimulation; settings: for ability to release IFN-γ upon antigenic stimulation: tetramer^low cells, day 4 after stimulation, incubated 2 hours, o-phenantholin 30 μM, lactose 100 mM, LacNAc 1 mM, sucrose 100 nM, vs untreated cells
Experimental: In addition to the experiments set forth, supra the effector capability of the T lymphocytes was tested, at various points during the period in which they were stimulated. Stimulation conditions are set forth in Example 1, supra. The effector activity was determined by contacting samples of 5000 CD8TLs with 2×10^5 HLA-A1 EBV-B cells which had been incubated for one hour with 1 μM of the peptide of SEQ ID NO: 1 at 37° C., and co-culturing the mixed sample, overnight. The amounts of IFN-γ and IL-2 resulting from the activation of the T cells were measured in the supernatants of the co-cultured cells via ELISAs.
(§1) To test this, cells of CD8TL clone A10 were collected, on days 0 and 4, after stimulation with HLA-A1^+, MAGE-3^+ tumor cells. Mean fluorescence indices were determined for both the high and low staining populations, on days 0 and 4. […] staining was carried out, as described supra, with cells that were either incubated with no test substance, or which had been incubated for 2 hours, on day 4, with one of o-phenantholin (30 μM), a known Zn chelator, lactose, (100 mM), LacNAc (1 mM), or sucrose (100 nM). The rationale behind the incubation with lactose, LacNAc, and sucrose is explained in Example 11. A final sample was incubated with swainsonin (0.5 μM) on day 0, before the cells were stimulated.
(§2) The cells were then washed, and analyzed for all of tetramer staining, proximity of the molecules via FRET, and IFN-γ production following antigenic stimulation.

CD8TL clone A10 [2] = experiment: FRET analysis of TCR-CD8 proximity on tetramer^low CD8TLs; settings: for FRET between TCR and CD8 (TCR-CD8 proximity): tetramer^low cells, day 4 after stimulation, incubated 2 hours, o-phenantholin 30 μM, lactose 100 mM, LacNAc 1 mM, sucrose 100 nM, vs untreated cells
Experimental: (§3) To elaborate, samples of 2×10^5 cells were washed in Hank's medium that had been supplemented with 1% human serum, and were then resuspended, in 50 μl of medium, which contained either an anti-TCRβ-PE antibody (the “donor” antibody), or an anti-CD8α-Alexa647 antibody (the “acceptor” antibody), or both. The former was diluted at 1/20 and the latter, at 1/300.
(§4) Samples were incubated for 30 minutes at 4° C., washed, and fixed with paraformaldehyde (2% w/v in PBS). Analysis was carried out on a FACS system, and transfer of fluorescence was calculated as FRET units, in accordance with Doucey, et al., J. Biol. Chem., 278:3257-3264 (2003), incorporated by reference. A FRET unit is defined as: [E3both−E3none]−[(E3A647−E3none)×(E2both/E2A647)]−[(E3PE−3none)×(E1both/E1PE)]
E1 is the fluorescence detected at 580 nm, following excitation at 488 nm. E2 is fluorescence detected at 670 nm, following excitation at 630 nm, and E3 is fluorescence detected at 670 nm following excitation at 488 nm.
After the molecules are excited at the donor level, transfer of energy from donor to acceptor happens only if the distance between two molecules is less than 10 nm, with energy transfer being measured by emission at the acceptor wavelength.
as §1, §2

CD8TL clone A10 [3] = experiment: HLA-peptide tetramer staining of tetramer^low CD8TLs; settings: for tetramer staining (ability to bind tetramers): tetramer^low cells, day 4 after stimulation, incubated 2 hours, o-phenantholin 30 μM, lactose 100 mM, LacNAc 1 mM, sucrose 100 nM, vs untreated cells
Experimental: Fourteen days after the stimulation, the CD8TLs were then stained with complexes of HLA-A0101 folded with SEQ ID NO: 1, prepared as described by Coulie, et al., Proc. Natl. Acad. Sci. USA, 98:10290-10295 (2001), incorporated by reference. The complexes were biotinylated and then labeled with phycoerythrin (“PE”), using known methods. Staining was accomplished by incubating CD8TLs, for 10 minutes, at room temperature, with 5 nM of tetramer, and then washing.
as §1, §2

[4] = system: CD8+ TILs from gastric carcinoma ascites; experiment: TCR CD8 FRET on CD8+ TILs; settings: 1 mM LacNAc, 37° C., 5 hours of treatment; compared with tetramer^high CD8TL A10
Experimental: as §3, §4
These experiments tested the impact of N-acetyllactosamine (LacNAc) on colocalization. Gastric carcinoma ascites were screened for CD8^+ TILs, after they had been incubated for various time periods at 37° C., with 1 mM of LacNAc, and washed. As a control, the line CD8TL A10 was used, two weeks after its last antigenic stimulation.

[5] = system: TILs from ovarian cancer ascites; experiment: IFN-γ response of anergic TILs to stimulation; settings: overnight incubation with 1 mM LacNAc
Experimental: It was confirmed by the fact that, notwithstanding overnight stimulation with a mixed population of tumor cells, B cells, and macrophages collected from the same ascites, or with allogenic EBV-β cells. IFNγ was not produced.
When these anergic TILs were incubated overnight with 1 mM LacNAc, their IFN-γ response increased more than 10 fold.

[6] = system: kidney infiltrating T cells isolated from the kidney allograft; experiment: IFN-γ production by functional kidney infiltrating T cells; settings: LacNAc treatment; stimulation with allogeneic EBV-B cells or anti-CD3/CD28 beads
Excerpt: A standard depletion strategy was used to isolate CD8^+ T cells from a breast carcinoma metastasis, ovarian carcinoma ascites, blood, and a kidney allograft that had been resected during a chronic rejection process.
As was noted supra, there was clear TCR CD8 FRET on kidney infiltrating T cells isolated from the kidney allograft. These T cells released IFN-γ upon stimulation with allogeneic EBV-B cells, or beads coated with anti-CD3/CD28 antibodies.
Different treatments were not, however, unspecific.

tetramer^low CD8TLs = experiment: IFN-γ release by tetramer^low CD8TLs treated with galectin-3 binders or neuraminidase; settings: CD8TLs collected 3-4 days after stimulation
Experimental: To test this, tetramer^low CD8TLs, collected 3-4 days after stimulation, as described supra, were treated with LacNAc, a known competitive binder of galectin-3. Release of IFN-γ was restored.
These experiments were repeated testing two other galectin-3 binders, “tri-LacNAc,” and an antibody against the N-terminus of galectin-3.
The experiments described herein, using neuraminidase, were carried out on human CD8TLs, and the results parallel those observed by Kao, et al., Immunol., 17:1607-1617 (2005), on murine cells. It is hypothesized that a sialic acid residue may be present, near the LacNAc motif of galectin-binding proteins, and act to increase galectin-3 affinity.

[7] = swainsonin 0.5 μM added on day 0 before restimulation, read at day 4

Structure (SMILES) | ability to release IFN-γ upon antigenic stimulation (CD8TL clone A10 [1]) | FRET between TCR and CD8 (TCR-CD8 proximity) (CD8TL clone A10 [2]) | tetramer staining (ability to bind tetramers) (CD8TL clone A10 [3]) | TCR CD8 FRET on TILs [4] | increase of IFN-γ response to antigen stimulation [5] | IFN-γ production of kidney infiltrating T cells [6] | release of IFN-γ by tetramer^low CD8TLs (tetramer^low CD8TLs) | ability to release IFN-γ when restimulated (CD8TL clone A10 [1]; swainsonin 0.5 μM added on day 0 before restimulation) | FRET efficiency (TCR-CD8) (CD8TL clone A10 [2]; [7]) | tetramer staining (CD8TL clone A10 [3]; [7])
OC[C@H]1O[C@@](CO)(O[C@H]2O[C@H](CO)[C@@H](O)[C@H](O)[C@H]2O)[C@@H](O)[C@@H]1O [Sucrose, sucrose] | no effect | no effect | no effect | – | – | – | – | – | – | –
CC(=O)N[C@H]1C(O)O[C@H](CO)[C@@H](O[C@@H]2O[C@H](CO)[C@H](O)[C@H](O)[C@H]2O)[C@@H]1O (stereo partly shown) [LacNAc, N-acetyl lactosamine] | higher ability to release IFN-γ | higher FRET efficiencies | higher degrees of tetramer staining | recovered the same level of TCR CD8 FRET | more than 10 fold | did not result in increased IFN-γ production | restored | – | – | –
O[C@H]1[C@H]2[C@H](O)CCCN2C[C@H]1O [Swainsonin, swainsonin] | – | – | – | – | – | – | – | higher ability to release IFN-γ | higher FRET efficiency | higher tetramer staining
OC[C@H]1O[C@@H](O[C@H]2[C@H](O)[C@@H](O)C(O)O[C@@H]2CO)[C@H](O)[C@@H](O)[C@H]1O (stereo partly shown) [lactose] | higher ability to release IFN-γ | higher FRET efficiencies | higher degrees of tetramer staining | – | – | – | – | – | – | –
c1cnc2c(c1)ccc1cccnc12 [o-phenantholin] | regained | regained FRET exchanges between the 2 molecules | regained | – | – | – | – | – | – | –
